The values that follow come from patent US6350879B1, “Benziso-N (L-histidine methylester)-thiazolone, process for the preparation thereof, and use thereof for RNA polymerase inhibition” (Council of Scientific and Industrial Research, priority 2000, dated 2002).

A short description of data set [1]: Stability at normal conditions. Type of data set: physicochemical.
Another data set concerns the target E. coli RNA polymerase (Escherichia coli, UniProt P0A8T7). Briefly: RNA polymerase inhibition, radioisotope (3H UTP) labelling transcription assay with calf thymus DNA. Type of data set: biochemical. The following applies: 0.8 μM of 3 with 0.4 μM E. coli RNA polymerase, incubated 15 min, dialysed overnight; native enzyme count = 100%. The protocol:
In a typical experiment, the course of transcription of calf thymus DNA by E. coli RNA polymerase was monitored in the presence and absence of the redox system 3. The enzyme aliquot after admixing with 3 was incubated for 15 minutes and then dialyzed overnight. A general transcription assay was then carried out in a medium, which contained ^3H UTP in addition to other nucleotides. The amount of radioactive UTP (uridine triphaspate) incorporated in the transcribed RNA was monitored by scintillation counter and the count, when compared to that obtained on using native enzyme gave the percentage loss of activity.
A mixture containing 0.8 μM solution of 3 (5 μL from 8 μM stock in methanol) and 0.4 μM of E. coli RNA polymerase (5 μl from 4 μM stock) in 1×transcription buffer ^a (5 μL) and 35 μL of milliQ water was incubated for 15 min, and dialysed ^b overnight, 4×Transcription assay mixture ^c (10 μL) was diluted with 10 μL of milliQ water and admixed with 20 μL of treated and dialyzed enzyme. The mixture was incubated for 20 minutes and spotted on to a DE81 filter paper strip ^d, which was pre-coated with EDTA to arrest further transcription. The filter paper strips were allowed to air dry for three hours, washed successively with 5% Na2HPO4 solution (3×200 mL, 10 min. each), distilled water (2×200 mL, 5 min. each) and then with ethanol (2×75 mL). […]

E. coli RNA polymerase, sequence (P0A8T7 whole entry): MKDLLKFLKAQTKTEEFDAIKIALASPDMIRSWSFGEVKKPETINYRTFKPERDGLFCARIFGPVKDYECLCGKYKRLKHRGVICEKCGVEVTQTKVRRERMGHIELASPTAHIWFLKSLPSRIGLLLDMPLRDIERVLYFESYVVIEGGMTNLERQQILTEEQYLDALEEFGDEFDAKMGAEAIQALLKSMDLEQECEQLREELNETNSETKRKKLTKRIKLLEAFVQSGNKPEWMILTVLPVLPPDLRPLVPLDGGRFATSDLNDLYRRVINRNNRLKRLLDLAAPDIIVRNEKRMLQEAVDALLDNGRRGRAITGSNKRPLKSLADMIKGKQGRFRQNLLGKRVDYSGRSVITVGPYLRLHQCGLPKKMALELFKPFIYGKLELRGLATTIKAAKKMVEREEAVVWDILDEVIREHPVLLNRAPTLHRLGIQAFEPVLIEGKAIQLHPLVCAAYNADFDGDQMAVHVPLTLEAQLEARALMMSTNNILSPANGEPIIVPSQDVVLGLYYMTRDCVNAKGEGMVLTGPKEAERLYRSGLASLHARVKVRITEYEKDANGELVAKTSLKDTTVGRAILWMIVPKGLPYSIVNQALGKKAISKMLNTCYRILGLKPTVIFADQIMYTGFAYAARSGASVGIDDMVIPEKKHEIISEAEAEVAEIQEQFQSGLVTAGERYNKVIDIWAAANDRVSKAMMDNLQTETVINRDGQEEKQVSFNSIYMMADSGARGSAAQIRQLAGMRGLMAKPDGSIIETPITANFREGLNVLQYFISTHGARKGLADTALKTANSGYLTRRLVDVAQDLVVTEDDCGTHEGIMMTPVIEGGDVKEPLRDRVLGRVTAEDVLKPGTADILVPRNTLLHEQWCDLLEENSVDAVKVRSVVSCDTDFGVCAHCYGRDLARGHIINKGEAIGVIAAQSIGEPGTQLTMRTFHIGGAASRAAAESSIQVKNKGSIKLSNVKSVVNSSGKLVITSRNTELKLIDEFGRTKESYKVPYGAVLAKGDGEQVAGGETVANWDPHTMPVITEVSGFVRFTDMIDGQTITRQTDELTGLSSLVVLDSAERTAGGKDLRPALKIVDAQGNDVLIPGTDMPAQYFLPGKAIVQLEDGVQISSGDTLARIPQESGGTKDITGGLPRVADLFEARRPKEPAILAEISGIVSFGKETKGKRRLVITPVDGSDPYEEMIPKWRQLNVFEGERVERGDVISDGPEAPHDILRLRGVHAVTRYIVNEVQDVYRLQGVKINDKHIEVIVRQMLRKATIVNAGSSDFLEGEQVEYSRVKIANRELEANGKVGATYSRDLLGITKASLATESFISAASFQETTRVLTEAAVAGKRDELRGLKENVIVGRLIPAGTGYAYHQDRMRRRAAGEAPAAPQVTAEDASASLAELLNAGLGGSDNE
E. coli RNA polymerase, sequence (P0A8V2 whole entry partner): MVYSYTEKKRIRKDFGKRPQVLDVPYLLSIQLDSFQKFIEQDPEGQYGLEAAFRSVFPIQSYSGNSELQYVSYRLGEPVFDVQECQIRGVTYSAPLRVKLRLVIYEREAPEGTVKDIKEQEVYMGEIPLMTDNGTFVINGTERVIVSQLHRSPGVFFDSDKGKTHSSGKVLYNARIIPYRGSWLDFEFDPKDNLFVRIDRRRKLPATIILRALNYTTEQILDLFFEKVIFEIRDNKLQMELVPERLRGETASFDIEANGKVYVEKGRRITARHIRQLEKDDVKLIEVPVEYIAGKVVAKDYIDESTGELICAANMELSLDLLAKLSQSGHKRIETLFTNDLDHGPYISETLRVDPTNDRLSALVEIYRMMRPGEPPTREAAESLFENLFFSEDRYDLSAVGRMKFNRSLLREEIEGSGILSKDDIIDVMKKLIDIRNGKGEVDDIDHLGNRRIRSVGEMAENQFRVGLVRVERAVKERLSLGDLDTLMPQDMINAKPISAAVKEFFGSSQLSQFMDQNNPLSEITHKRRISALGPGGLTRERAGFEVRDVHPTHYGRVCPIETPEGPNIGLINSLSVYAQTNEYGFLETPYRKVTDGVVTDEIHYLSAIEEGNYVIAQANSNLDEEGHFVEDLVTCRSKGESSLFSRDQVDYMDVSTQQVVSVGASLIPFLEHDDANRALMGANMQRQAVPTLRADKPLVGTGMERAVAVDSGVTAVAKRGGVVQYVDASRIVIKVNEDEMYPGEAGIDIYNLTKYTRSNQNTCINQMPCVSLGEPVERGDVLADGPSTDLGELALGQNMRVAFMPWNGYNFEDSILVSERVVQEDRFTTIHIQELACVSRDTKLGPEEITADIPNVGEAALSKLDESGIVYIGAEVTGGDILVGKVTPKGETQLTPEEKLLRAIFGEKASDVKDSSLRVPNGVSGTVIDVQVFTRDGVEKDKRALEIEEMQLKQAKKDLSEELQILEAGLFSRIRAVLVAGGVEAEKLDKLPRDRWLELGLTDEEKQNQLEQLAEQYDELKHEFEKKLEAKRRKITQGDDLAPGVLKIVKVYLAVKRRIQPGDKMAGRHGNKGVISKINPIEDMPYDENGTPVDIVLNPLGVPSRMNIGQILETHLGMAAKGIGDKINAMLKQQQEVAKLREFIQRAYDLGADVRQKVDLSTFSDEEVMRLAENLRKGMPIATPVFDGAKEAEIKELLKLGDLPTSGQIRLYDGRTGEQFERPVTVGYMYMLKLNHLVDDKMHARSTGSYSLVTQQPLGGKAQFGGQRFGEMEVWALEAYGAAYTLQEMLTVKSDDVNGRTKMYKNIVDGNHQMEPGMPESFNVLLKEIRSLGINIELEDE
E. coli RNA polymerase, sequence (P0A7Z4 whole entry partner): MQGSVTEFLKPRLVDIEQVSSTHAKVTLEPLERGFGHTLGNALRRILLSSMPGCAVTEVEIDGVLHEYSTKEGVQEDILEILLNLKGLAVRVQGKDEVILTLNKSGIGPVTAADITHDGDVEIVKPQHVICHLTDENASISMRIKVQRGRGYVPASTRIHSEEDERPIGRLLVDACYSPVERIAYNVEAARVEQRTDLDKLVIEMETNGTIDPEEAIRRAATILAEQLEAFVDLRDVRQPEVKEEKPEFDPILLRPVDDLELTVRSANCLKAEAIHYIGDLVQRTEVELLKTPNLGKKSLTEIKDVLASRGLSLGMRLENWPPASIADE
E. coli RNA polymerase, sequence (P00579 whole entry partner): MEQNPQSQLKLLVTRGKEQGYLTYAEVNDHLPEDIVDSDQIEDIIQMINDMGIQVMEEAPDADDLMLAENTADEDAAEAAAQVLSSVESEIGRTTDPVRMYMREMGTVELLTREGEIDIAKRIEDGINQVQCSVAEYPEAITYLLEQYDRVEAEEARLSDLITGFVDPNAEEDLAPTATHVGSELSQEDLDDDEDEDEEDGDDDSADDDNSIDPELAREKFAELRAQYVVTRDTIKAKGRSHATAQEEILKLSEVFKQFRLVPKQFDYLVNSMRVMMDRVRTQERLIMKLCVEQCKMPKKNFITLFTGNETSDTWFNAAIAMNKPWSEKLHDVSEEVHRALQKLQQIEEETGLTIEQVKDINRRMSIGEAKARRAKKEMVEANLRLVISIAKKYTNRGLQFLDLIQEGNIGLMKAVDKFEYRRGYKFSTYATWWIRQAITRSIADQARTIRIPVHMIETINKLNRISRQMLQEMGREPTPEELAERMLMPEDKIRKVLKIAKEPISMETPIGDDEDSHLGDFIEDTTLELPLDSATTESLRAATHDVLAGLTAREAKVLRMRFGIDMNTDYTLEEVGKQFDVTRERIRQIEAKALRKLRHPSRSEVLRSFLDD

For `COC(=O)C(Cc1cnc[nH]1)n1sc2ccccc2c1=O` [compound 3, benziso-N(L-histidine methylester)-thiazolone], in data set [1], the stability result is “stable at normal conditions”. Also, at E. coli RNA polymerase, the “activity compared to the native enzyme” value is recorded as 53% and the inhibition of activity was 47%.
